Laboratory results reported in article PMC5557808 (Nature Communications, 2017).
Where a SMILES comes first, the peptide text is derived from it. The star is where a group is joined. X1 = CC[N+](CC)(CC(=O)Nc1c(C)cccc1C)Cc1cccc(C(=O)*)c1

Experiments:
[1] = target: T1, MMP-8 (Homo sapiens, UniProt P22894); test: MMP-8 cleavage of soluble PCL conjugates (HPLC decrease of main peak); type: biochemical; details: up to 12 h; control PCLs; MMP-8 buffer pH 6.8-7.0, 37 °C
T1 construct: purchased EMD Millipore Corporation (Billerica, MA)
T1 sequence (P22894 101-467): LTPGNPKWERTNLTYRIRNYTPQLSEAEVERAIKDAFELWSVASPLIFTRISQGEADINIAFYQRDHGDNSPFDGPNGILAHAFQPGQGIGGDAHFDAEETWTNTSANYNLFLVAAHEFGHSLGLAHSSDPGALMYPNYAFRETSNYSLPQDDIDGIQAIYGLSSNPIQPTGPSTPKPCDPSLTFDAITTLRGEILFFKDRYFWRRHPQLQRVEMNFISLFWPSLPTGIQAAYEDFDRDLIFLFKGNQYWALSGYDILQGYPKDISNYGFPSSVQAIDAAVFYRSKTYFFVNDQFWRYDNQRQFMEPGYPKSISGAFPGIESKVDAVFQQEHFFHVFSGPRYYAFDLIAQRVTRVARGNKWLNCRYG
Procedure: Pro-MMPs (e.g., MMP-8, MMP-1, or MMP-9; used at 0.1 mg/mL and >100.0 mU/mg based on the manufacturer’s information) were activated with p-aminophenylmercuric acetate (APMA) (8). For that, a 10 mM stock solution of APMA was freshly prepared in 0.1 M NaOH and a 10:1 (v/v) ratio of the respective proenzyme and the APMA solution (MMP:APMA) was incubated for 3 h at 37 °C. The activity was confirmed using the MMP-8 detection kit (QuickZyme Biosciences, Leiden, the Netherlands). A stock solution (90 µg/mL) of the activated MMP was prepared (used for cleavage studies on the PCL or the fully assembled microparticle-PCL-tastant setup (sensor), in MMP-8 buffer (200 mM NaCl, 50 mM Tris-HCl, 5 mM CaCl2, 1 µM ZnCl2, 0.05% Brij 35 at pH 6.8–7.0). All MMP experiments are described in detail in the Supplementary Methods. […]
in water ( v/v)) and eluent B (0.1 % TFA in 2:3 water-acetonitrile (v/v)) and a gradient from 33 to 80% elu ent B within 30 minutes. UV absorption was r ead at λ = 280 nm or 220 nm. After freezing the samples at -80 °C, fr eeze- drying was performed on a Christ Alpha 1 -4 de vi ce (Martin Christ Gefriertrocknungs anlagen, Osterode am Harz, G e r ma n y) at a desublimers ’ te mperature of - 60 ° C, pressure of 1.030 mbar and processing temperature of 19 °C.
Pro-MMPs (e. g. MMP -8, MMP -1 or MMP-9; adapted to 0.1 mg/mL and > 100.0 mU/mg based on manufacturer information and when appropriate) were activated with APMA 8. For that, a 10 mM stock solution of APMA in 0.1 M NaOH was freshly prepared and a 10:1 (v/v) ratio of the r especti ve proenzyme and APMA solution (MMP:APMA) was incubated for 3 h at 37 °C. The activity was conf ir med using the MMP-8 detection kit (Q uic kZ ym e® Biosciences, Leiden, Netherlands). A stock solution (90 µg/mL) of the activated MMP was prepared (used for cleavage studies on the pr ot eas e-cleavable linker (PCL; e.g. Figure 2) or the fully assemb led microparticle -PCL- t ast ant setup (sensor; e.g. Figure 3) , in MMP -8 buffer (200 mM NaCl, 50 mM Tris-H Cl, 5 mM C aC l2, 1 µM ZnCl2, 0.05 % Brij35 at pH 6.8- 7.0). A ll MMP -8 exp eriments wer e performed as follo ws. 25 µg of the sensor ( see chap ter : Peptide-coupling to beads (Sensor)) in 100 µL MMP-buffer or 1 mg of FP LC -purified and lyophilized PCL as described dissolved 2 mL M MP -buffer resulting in a final concentration of 0.5 mg/ mL substrate was used. […]
Figure 2A , 3, 4B ). […]
(sensor) in co mpar ison to negative controls (the negative controls for the PCL an d sensor exper i men ts were b y incubation without MMP under otherwise identical conditions). The relative d ecreas e of the PCL’s ma in peak was char act er ized by HPLC (PCL) or of the sensor’s fluorescence b y FACS (sensor) in comparison to control. […]

[2] = test system: MMP-8, then leucine aminopeptidase (AP); test: MMP-8 for 22 h, followed by exposure to AP in AP buffer; details: porcine kidney (AP), 37 °C, up to 22 h MMP + 30 minutes AP
[3] = test system: MMP-8; test: MMP-8 buffer (200 mM NaCl, 50 mM Tris-HCl, 5 mM CaCl2, 1 µM ZnCl2, 0.05% Brij 35 at pH 6.8–7.0); details: human, 37 °C, up to 6 hours
[4] = test system: MMP-8; test: MMP-8 in MMP-8 buffer; details: human, 37 °C, up to 22 h
[5] = target: T2, Leucine aminopeptidase (AP) (Sus scrofa, UniProt P15145); test: Aminopeptidase (AP) incubation; type: biochemical, porcine
T2 construct: Leucine aminopeptidase (AP; Mw = 280 kDa) from porcine kidney; purchased Sigma-Aldrich Chemie, Schnelldorf, Germany; host or cells: porcine kidney (tissue-derived)
T2 sequence (P15145 1-963): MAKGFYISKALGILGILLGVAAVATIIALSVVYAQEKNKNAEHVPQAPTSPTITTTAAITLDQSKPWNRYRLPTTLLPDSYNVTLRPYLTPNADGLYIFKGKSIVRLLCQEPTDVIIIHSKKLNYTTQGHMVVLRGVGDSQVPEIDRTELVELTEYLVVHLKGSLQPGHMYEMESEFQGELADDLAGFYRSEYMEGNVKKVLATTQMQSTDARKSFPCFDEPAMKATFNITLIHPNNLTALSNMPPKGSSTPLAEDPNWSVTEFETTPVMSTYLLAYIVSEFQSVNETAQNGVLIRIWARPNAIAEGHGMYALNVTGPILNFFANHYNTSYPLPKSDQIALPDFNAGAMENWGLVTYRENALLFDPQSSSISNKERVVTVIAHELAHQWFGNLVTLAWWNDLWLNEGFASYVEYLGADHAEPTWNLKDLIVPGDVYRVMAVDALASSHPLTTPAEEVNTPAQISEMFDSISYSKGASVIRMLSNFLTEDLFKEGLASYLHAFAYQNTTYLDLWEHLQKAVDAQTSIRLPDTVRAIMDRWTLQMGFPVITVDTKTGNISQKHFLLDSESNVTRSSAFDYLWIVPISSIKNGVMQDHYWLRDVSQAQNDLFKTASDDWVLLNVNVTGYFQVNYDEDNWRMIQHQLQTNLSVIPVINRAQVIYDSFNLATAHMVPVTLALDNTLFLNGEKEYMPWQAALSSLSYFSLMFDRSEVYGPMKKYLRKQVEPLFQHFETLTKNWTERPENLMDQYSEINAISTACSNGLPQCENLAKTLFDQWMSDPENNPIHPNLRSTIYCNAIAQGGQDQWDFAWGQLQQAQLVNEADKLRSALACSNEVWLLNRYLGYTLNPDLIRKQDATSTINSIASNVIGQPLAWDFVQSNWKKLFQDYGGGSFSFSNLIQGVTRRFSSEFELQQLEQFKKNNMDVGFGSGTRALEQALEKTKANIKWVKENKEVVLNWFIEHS
Procedure: Leucine aminopeptidase (AP; Mw = 280 kDa) from porcine kidney dissolved in AP buffer (50 mM Tris-HCl, 1 mM CaCl2, and 150 mM NaCl at pH 7.0) was used. L-leucine-p-nitroanilide (0.125 mg/mL) was used as control substrate. For AP digestion, 1 mg of purified lyophilized peptide was diluted in 2 mL AP buffer resulting in a final concentration of 0.5 mg/mL substrate. To evaluate the impact of AP concentration on peptide cleavage, AP was added at concentrations of 0 (negative control), 0.87, 8.7, 39, and 78 µg/mL and the samples were incubated at 37 °C for 1 h. For analysis of the AP incubation time, an AP concentration of 0.87 µg/mL was used and analyzed after 10, 20 min and 1, 2, 3, and 6 h. To stop the enzyme activity, samples were kept at 95 °C for 15 min. Afterwards, HPLC analyses were performed (as described in the Supplementary Information) to analyze the relative decrease of the main peak as compared to the negative control. Further details are given in the Supplementary Methods.
MMP -9) in a concentration of 0.4 ng/µL (50 µL) were mixed with MMP -8 buffer (37 µL), detection enz yme (5 µL) and substrate (8µL; all fro m Q uic kZ yme® ). The acti vi t y was meas ur ed for 12 hours in inter vals of 10 minutes. […]
Aminopeptidase (AP) incubation
Leucine A minopeptidase (AP; M w = 280 kD a) from porcine kidney dissolved in AP buffer (50 mM Tris-HCl, 1 mM CaCl2 and 150 mM NaCl at pH 7.0) was used. L-leu cin e-p-nitroan ilide (0.125mg/ mL) was used as control substr at e. […] Fo r anal ysis of the impact of AP incubation time, the identical conditions were used (AP concentration of 0.87 µg / mL (and analyzed after 10, 20 minutes and 1, 2, 3 and 6 hours ). To stop the enzymatic activit y, sa mp les wer e kept at 95 °C for 15 minutes. A fterwards, H PLC analys es were p erformed (as descr ibed) to an al yze th e relative d ecr eas e of the ma i n pea k as co mp ared to the negative control (see […]
V(B)/(V(A)+V(B)) = 5 % to 90 % over 10 min, V(B)/(V(A)+V(B)) = 90 % for 5 min, V(B)/(V(A)+V(B)) = 90 % to 5 % over 3 min. […] UV detection was measured at 254 nm. […]

[6] = test system: MMP-8; test: MMP-8; details: human, up to 12 h

“Cf-GPQGYAGQ-A( N3)-Q [ID #4, control PCL, exchange I5Y]” was tested, and the “cleavage by MMP-8” value [1] was “not cleaved”.

In the case of A( N3)-GPQGIA GQ-K-De, the fragment found [2] is reported as “denatonium coupled lysin”, the cleaved bond [3] is reported as “G-I” and the cleaved bond [4] is reported as “G-I”.

In the case of De-GPQG, the not cleaved [2] is reported as “no difference after additional AP incubation for 30 minutes”.

For `CC[C@H](C)[C@H](N)C(=O)N[C@@H](C)C(=O)NCC(=O)N[C@@H](CCC(N)=O)C(=O)N[C@@H](CCCCNC(=O)c1cccc(C[N+](CC)(CC)CC(=O)Nc2c(C)cccc2C)c1)C(N)=O` [ID #5a] (H-IAGQK(X1)-NH2), the “cleavage of the peptide denatonium fragment by aminopeptidase” value ([5]; 870 ng/mL AP, within 250 min, 0.5 mg/mL substrate, AP buffer pH 7.0, 37 °C, HPLC, n = 5) was 80%.

For Cf-GPQGYAGQ-A( N3)-Q, the not cleaved [6] was “not cleaved by MMP-8 up to 12 h”.

With “A( N3)-GPQGIA GQ-K-De [ID #5, second-generation PCL denatonium conjugate]” the “effect of additional AP incubation after complete MMP-8 cleavage” value ([5]; AP 3.1 nM (0.87 µg/mL), 30 min, 37 °C, after 22 h with 1800 ng/mL MMP-8, LC-MS) was “emerging peaks”.

In the case of Cf-GP QGIA GQ-A( N3)-Q, the cleaved bond [3] is reported as “G-I”.

For “Cf-GPLGI AGQ-A( N3)-Q [ID #3, control PCL, exchange Q3L]”, the “cleavage by MMP-8” value [1] was “not cleaved”.

In the case of Cf-GPLGI AGQ-A( N3)-Q, the not cleaved [6] is reported as “not cleaved by MMP-8 up to 12 h”.
